Values quoted from earlier work as cited in patent US20090060993A1, “SOLID PHARMACEUTICAL COMPOSITION FOR ENHANCED DELIVERY OF COENZYME Q-10 AND UBIQUINONES” (priority 2007, published 2009).

Conditions: humans

COC1=C(OC)C(=O)C(C/C=C(\C)CC/C=C(\C)CC/C=C(\C)CC/C=C(\C)CC/C=C(\C)CC/C=C(\C)CC/C=C(\C)CC/C=C(\C)CC/C=C(\C)CCC=C(C)C)=C(C)C1=O [coenzyme Q-10, ubidecarenone]
total absorption: less than 10%
